Assay results taken from patent US20230015647A1, “INHIBITORS OF HISTONE DEMETHYLASES (PFI-63 AND PFI-90) FOR THE TREATMENT OF CANCER AND FOR THE INHIBITION OF HISTONE DEMETHYLASE IN CELLS” (The United States of America,as represented by the …, priority 2019, published 2023).
“Also recorded” adds a separate entry of the source.

Tests used:
[1] = system: truncated KDM3B catalytic domain; test: 1D 1H NMR chemical shift perturbation; assay type: binding; conditions: 300 uM PFI-90, 12 uM protein, with or without 100 uM 2-OG
Excerpt: For reference, FIG. 63 depicts NMR peaks for PFI-90. While the peaks are complex, all relevant peaks are clearly resolved. FIG. 64 depicts NMR peaks obtained for […] (also called 2-oxoglutaric acid or “2-OG”), a substrate of histone demethylases. 2-OG peaks are easily resolved. FIG. 65 depicts results from a 1D 1H analysis of PFI-90.

[2] = system: truncated KDM3B catalytic domain; test: CPMG relaxation editing NMR binding assay
Excerpt: A WaterLOGSY assay and a Carr-Purcell Meiboom-Gill (CPMG) based assay were used to investigate protein-ligand binding affinity between PFI-90 and a truncated KDM3B catalytic domain.
CPMG (Carr-Purcell-Meiboom-Gill) Relaxation Editing Proton NMR is another drug-discovery NMR experiment that may be used in conjunction with WaterLOGSY to orthogonally validate the presence of a reversible binding interaction of mild to high affinity from a small molecule to a label-free target. In contrast to WaterLOGSY, all peaks are phased above the X-axis. Instead, this experiment filters out the proportion of peak height that is contributed from the quantity of small molecule bound to a target of high molecular weight (e.g., a protein). Once the attenuation of peak height is equivalent to a 20% reduction, the compound is said to bind, with an increasing ratio of bound to unbound small molecules manifesting in increasing signal attenuation.

[3] = system: PAX3-FOXO1 fusion transcription factor; test: RH4 ALK-Luc luciferase reporter assay (PAX3-FOXO1 super enhancer activity); assay type: cell-based, human; conditions: for Avg Absorbance @ 1 μM, ALK-Luc / Avg Absorbance @ 10 μM, ALK-Luc: RH4 ALK-Luc reporter
Procedure: The screen was performed using two derivatives of RH4 FP-RMS cells: • (1) “ALK-Luc cells”—RH4 cells expressing a pGreenFire green fluorescent protein (GFP)-luciferase reporter (SEQ ID NO: 1) controlled by the PAX3-FOXO1-dependent intronic ALK super enhancer (for reporting on PAX3-FOXO1 activity) (FIGS. 1 and 2); and • (2) “CMV-Luc cells”—control RH4 cells in which the reporter is transcribed from a constitutively active cytomegalovirus (CMV) promoter. An Example of visualization via the ALK-Luc reporter is depicted in FIG. 3.
The cells were enriched for reporter expression levels and used for assay development. A high throughput screening assay was developed after optimization of cell seeding density, length of incubation of cells prior to and post treatment with test compounds, and effect of passaging among other factors. The screen was designed to identify compounds that suppressed PAX3-FOXO1 activity without disrupting viability (at a short time points) or general transcription. The assay simultaneously monitors the function of the PAX3-FOXO1 super enhancer (also referred to as “ALK super enhancer”), general transcriptional activity as well as cell viability.
The visual summary of the screening strategy is illustrated in FIG. 4. ALK-Luc cells were seeded in both white-walled and white-bottomed 384-well plates (Perkin Elmer, Cat #6007658) for luciferase assays and in clear 384-well plates (Perkin Elmer, Cat #6007688) for viability assay (XTT reduction) by transferring 27 μL of cell suspensions (seeding 3000 cells per well) into each well. The plates were then transferred into an incubator for 18-20 h. The CMV-Luc cells were similarly seeded into white plates and incubated.
A pure compound library of 62,643 compounds consisting of synthetic and natural products described previously (Grohar et al., J Natl. Cancer Inst., 103: 962-978 (2011)) was then used in a high throughput screening campaign to identify inhibitors of PAX3-FOXO1. Stock DMSO Solutions of these compounds were used to prepare 100 μM solutions in growth medium in 384-well plates also containing 16 wells each of a positive control (Actinomycin D, Sigma, Cat #A1410) and negative control (DMSO). Screening compounds along with the positive and negative controls were added to assay plates by transferring 3 μL of the prepared 100 μM dilutions using an automated liquid handler (Agilent, Bravo). Treated plates were incubated for 24 h. At the end of this period, treated plates were allowed to equilibrate to room temperature for 30 minutes. SteadyLite Plus luciferase assay reagent powder (PerkinElmer, Cat #6066759) was reconstituted in its buffer in parallel and was also allowed to equilibrate to room temperature.
After transferring 30 μL of the luciferase assay reagent using a liquid handler, plates were further incubated at room temperature for 10 minutes. Finally, luminescence measurements were carried out using a multi-label microplate reader (BMG, Pherastar FSX) set in luminescence mode. Cell viability was assessed by adding XTT reagent (10 μL per well) in clear plates containing treated ALK-Luc cells. XTT treated plates were read using a plate reader in absorbance mode at 450 nm (PerkinElmer, Envision) after further incubation for 1 hour to allow cells to metabolize XTT to a colored formazan product. Luminescence and XTT absorbance values were normalized to the average of the negative controls on each plate and were calculated as a percentage of these controls. Performance of the screening assay was routinely monitored via calculation of Z-factor (Zhang et al., J. Biomol. Screen., 4: 67-73 (1999)) with Z′ for all plates found to be >0.7.
RH4 ALK-Luc and RH4 CMV-Luc cells were seeded into separate white-walled and bottomed 384-well plates and were incubated and treated with screen hits and epigenome compounds. The highest test concentration of these compounds (10-fold) were prepared from DMSO stock solutions via dilution in medium. […]

RH30.19luc cells = test: CRISPR/Cas9 genome-scale loss of function time course screen (GeCKOv2, TKOv3); assay type: cell-based; conditions: compared to DMSO
Procedure: To identify specific proteins targeted by PFI-63, a genome-scale loss of function time course screen was performed in RH30.19luc cells using two CRISPR/Cas9 libraries (GeCKOv2 and TKOv3) with and without treatment with PFI-63.

rhabdomyosarcoma cells = test: Morphological imaging of treated cells; assay type: cell-based
Excerpt: Among the 64 compounds identified above, 33 compounds of unknown mechanism of action were identified.

KDM3B (JMJD1B) = molecular target: T1, KDM3B (JMJD1B) (Homo sapiens, UniProt Q7LBC6); test: Eurofins histone lysine demethylase panel, enzymatic inhibition, substrate H3K9me1/2(3); assay type: biochemical; conditions: KDM3B (JMJD1B) enzymatic activity
T1 construct: The enzymatic activity of each of the full length protein was analyzed using known substrates; purchased Eurofins
T1 sequence (Q7LBC6 whole entry): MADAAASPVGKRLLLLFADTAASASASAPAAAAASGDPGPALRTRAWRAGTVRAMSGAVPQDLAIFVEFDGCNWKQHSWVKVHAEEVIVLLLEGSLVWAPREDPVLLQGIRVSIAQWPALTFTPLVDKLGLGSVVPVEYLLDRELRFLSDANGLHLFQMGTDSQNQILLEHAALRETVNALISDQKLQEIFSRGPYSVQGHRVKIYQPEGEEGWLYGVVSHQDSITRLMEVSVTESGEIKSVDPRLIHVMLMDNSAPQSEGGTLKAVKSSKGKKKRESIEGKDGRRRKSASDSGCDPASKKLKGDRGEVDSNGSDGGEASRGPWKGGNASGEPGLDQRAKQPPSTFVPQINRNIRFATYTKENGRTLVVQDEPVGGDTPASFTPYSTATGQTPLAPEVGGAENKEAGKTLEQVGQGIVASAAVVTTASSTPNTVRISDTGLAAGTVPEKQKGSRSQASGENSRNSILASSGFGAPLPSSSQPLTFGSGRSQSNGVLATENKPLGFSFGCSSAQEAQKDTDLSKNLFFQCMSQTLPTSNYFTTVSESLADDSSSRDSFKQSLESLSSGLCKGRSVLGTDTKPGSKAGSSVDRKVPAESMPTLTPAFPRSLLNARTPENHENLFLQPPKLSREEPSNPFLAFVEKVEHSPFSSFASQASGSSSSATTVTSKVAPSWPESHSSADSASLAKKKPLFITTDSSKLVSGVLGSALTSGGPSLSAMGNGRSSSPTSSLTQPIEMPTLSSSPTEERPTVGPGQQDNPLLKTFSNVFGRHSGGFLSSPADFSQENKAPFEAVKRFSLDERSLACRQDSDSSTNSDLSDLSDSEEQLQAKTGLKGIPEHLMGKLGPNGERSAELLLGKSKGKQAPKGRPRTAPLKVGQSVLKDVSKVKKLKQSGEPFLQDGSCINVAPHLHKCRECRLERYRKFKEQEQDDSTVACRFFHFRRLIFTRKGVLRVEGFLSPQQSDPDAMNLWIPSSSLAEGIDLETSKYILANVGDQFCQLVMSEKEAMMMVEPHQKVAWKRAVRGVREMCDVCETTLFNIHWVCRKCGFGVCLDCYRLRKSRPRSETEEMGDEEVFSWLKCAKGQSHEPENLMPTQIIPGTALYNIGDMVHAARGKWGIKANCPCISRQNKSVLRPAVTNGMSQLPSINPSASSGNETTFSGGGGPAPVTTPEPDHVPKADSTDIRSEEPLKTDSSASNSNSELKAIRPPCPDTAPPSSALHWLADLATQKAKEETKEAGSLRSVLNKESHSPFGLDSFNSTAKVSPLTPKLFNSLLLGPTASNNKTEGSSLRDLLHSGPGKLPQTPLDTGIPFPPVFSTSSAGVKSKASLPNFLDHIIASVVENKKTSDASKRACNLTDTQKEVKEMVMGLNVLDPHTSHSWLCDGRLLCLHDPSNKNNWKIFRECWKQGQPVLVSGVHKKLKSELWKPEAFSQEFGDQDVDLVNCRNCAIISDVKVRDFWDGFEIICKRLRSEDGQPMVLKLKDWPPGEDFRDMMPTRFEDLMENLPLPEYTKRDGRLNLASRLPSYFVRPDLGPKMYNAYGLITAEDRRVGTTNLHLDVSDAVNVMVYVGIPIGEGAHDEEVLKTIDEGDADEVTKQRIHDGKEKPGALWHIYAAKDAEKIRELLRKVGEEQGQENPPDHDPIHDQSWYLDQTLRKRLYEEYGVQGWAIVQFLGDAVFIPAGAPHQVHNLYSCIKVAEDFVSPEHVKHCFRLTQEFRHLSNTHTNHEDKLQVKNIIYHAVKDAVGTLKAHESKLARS
Procedure: PFI-63 was sent to Eurofins (www.eurofins.com) for direct enzymatic inhibition activity analysis. The enzymatic activity of each of the full length protein was analyzed using known substrates such as methylated lysines. The proteins were treated with various concentrations of PFI-63. As described above, PFI-90 inhibitory activity was determined by Eurofins using enzymatic inhibition activity analysis of a panel of histone demethylases.

Structure (SMILES)	chemical shift perturbation upon addition of truncated KDM3B catalytic domain [1]	peak height attenuation (CPMG) ([2]; 1 of 9 peaks) [%]	peak height attenuation (CPMG) ([2]; 3 of 9 peaks) [%]	peak height attenuation (CPMG) ([2]; 5 out of 9 PFI-90 peaks)	binding (CPMG) ([2]; in the presence and absence of 2-OG)	Avg Absorbance @ 1 μM, ALK-Luc [3]	Avg Absorbance @ 10 μM, ALK-Luc [3]	synthetic lethality of targets of histone lysine demethylases (RH30.19luc cells)	cell morphology (rhabdomyosarcoma cells)	suppression of PAX3-FOXO1 super enhancer activity [3]	IC50 (KDM3B (JMJD1B)) [nM]
O=C(NNc1ccccn1)c1ccccn1 [PFI-90]	not influences by 2-OG presence; also recorded: not influenced by the presence of 2-OG	70	50	Complete/near complete	Strong binding	55.9	34.0	–	–	–	–
Cc1cc(C)cc(C(=O)NNC(=O)c2ccccn2)c1 [PFI-63]	–	–	–	–	–	91.4	40.1	synthetically lethal	elongation of cells	significant suppression	2000 to 3000
